Key:
MIA PaCa-2 cells = assay: MTS cell viability assay in human pancreatic cancer cells; assay type: cell-based; details: in combination with Trametinib, 72 hours
Protocol: Example 4 Evaluation of efficacy of kinase inhibitor with use of human pancreatic cancer cells Human pancreatic cancer cell line (MIA PaCa-2) was purchased from National Institute of RIKEN BioResource Research Center, and cultured in Dulbecco's Modified Eagle's Medium (Nacalai tesque) supplemented with 10% fetal bovine serum (Gibco) and 1% penicillin-streptomycin (Nacalai tesque) at 37° C. in the presence of 5% CO2.
Trametinib (DMSO only, 1 μM, 300 μM), Adavosertib (300 μM, 1 mM), AD80 (30 μM, 3 mM), Alisertib (30 μM, 1 mM) and BI-831266 (3 μM, 3 mM) was each prepared and diluted to 100-fold in the medium to produce a drug solution.
MIA PaCa-2 cells were seeded into a 96-well plate at 1000 cells/well (in 100 μL medium). After culturing for one day, 10 μL of the drug solution of Trametinib alone or Trametinib combined with another kinase inhibitor was added to the cells in each well on the 96-well plate (0.2% final concentration of DMSO). Each combination was tested in five wells. After the addition of the drug solution, the cells were cultured at 37° C. for 72 hours in the presence of 5% CO2, and then the cell viability was measured using MTS assay (CellTiter 96 (registered trademark), Promega). The viability is expressed as a ratio to that of a control (solvent only).

4-hit flies (non-GFP) = assay: Efficacy of kinase inhibitors on 4-hit fly survival rate (drug food); assay type: in vivo, Drosophila; details: used alone; 1 M Trametinib in food; reared at 25° C. for 13 days
Protocol: Trametinib (MEK inhibitor), Adavosertib (referred also to as MK-1775, WEE1 inhibitor), AD80 (FRK inhibitor), Y-27632 (ROCK inhibitor), Alisertib (AURKA inhibitor, the above all purchased from MedChem Express), BI-831266 (AURKB inhibitor, obtained from Boehringer Ingelheim) was each dissolved in DMSO (SIGMA) and stored at −20° C.
Agar (Wako), brewers' yeast (MP Bio), yeast extract (Sigma Aldrich), bacto casitone (BD), sucrose (Wako), glucose (Wako), MgCl2 (Wako) CaCl2 (Wako), Propionic acid (Wako), and Mold inhibitor (10% Methyl-4-hydroxy Benzoate in 95% Ethanol; Wako) were dissolved in ultrapure water to prepare a standard food. While kept at 50° C., the kinase inhibitor (Trametinib alone or a combination of Trametinib and another kinase inhibitor) dissolved in DMSO was added for mixing. The resulting solution was cooled to obtain a drug food. The final concentrations of the compounds in the food were […] for Trametinib, 100 μM for Adavosertib, 50 μM for AD80, 10 μM for Y-27632, and 100 μM for BI-831266.
The UAS-Ras^G12D, UAS-p53^shRNA, UAS-CycE, UAS-Med^shRNA fly produced in Example 1 was mated with a Ser-gal4 fly (Bloomington Drosophila Stock Center). […] The eggs were reared at 25° C. for 13 days, and survival rate of 4-hit flies (non-GFP) reared on each food was calculated by dividing the number of eclosed pupae by the total number of pupae.

## CC(C)n1nc(-c2ccc(NC(=O)Nc3cc(C(F)(F)F)ccc3F)cc2)c2c(N)ncnc21 [AD80]
MIA PaCa-2 cells
  cell viability compared to that of Trametinib used alone: greatly reduced the cell viability

## C=CCn1c(=O)c2cnc(Nc3ccc(N4CCN(C)CC4)cc3)nc2n1-c1cccc(C(C)(C)O)n1 [Adavosertib]
MIA PaCa-2 cells
  cell viability compared to that of Trametinib used alone: greatly reduced the cell viability

## COc1cc(Nc2ncc3c(n2)-c2ccc(Cl)cc2C(c2c(F)cccc2OC)=NC3)ccc1C(=O)O [Alisertib]
MIA PaCa-2 cells
  cell viability compared to that of Trametinib used alone: greatly reduced the cell viability

## CC(=O)Nc1cccc(-n2c(=O)n(C3CC3)c(=O)c3c(Nc4ccc(I)cc4F)n(C)c(=O)c(C)c32)c1 [Trametinib]
4-hit flies (non-GFP)
  increase of survival rate of 4-hit flies (non-GFP): 20%

— patent US20220387630A1, “METHOD FOR SCREENING ANTICANCER AGENT AND COMBINATION DRUG OF KINASE INHIBITORS FOR TREATMENT OF PANCREATIC CANCER” (National University Corporation Hokkaido University, priority 2020, published 2022)
